# Test results: patent US20060160070A1, “Association-based epitome design” (Microsoft Corporation, priority 2004, published 2006)
# What was measured:
# HLA A*0101 [1] = molecular target: T1, HLA A*0101 (Homo sapiens, UniProt P04439, A114D/A174V/A182V/D101N/D185E/E176A/E190D/L180R/Q94H/R68K/S129P/T187R/V100A/V91M/W191G); assay: ITOPIA peptide binding assay; details: 1.11×10^−4M of peptide
# T1 construct: purchased
# Method: (§1) Peptide binding, off-rate and affinity were measured according to the protocols described in the ITOPIA Epitope Discovery System Customer Guide. To conduct the experiments, ninety-six (96) micro-titer plates coated with MHC molecules representing the HLA alleles listed in Table 9 were used to identify candidate peptides. Determinations were performed in duplicate using an ELISA plate reader. The peptide binding assay used measures the ability of individual peptides to bind to the HLA molecules under standardized optimal binding conditions. The assay was performed for all the test peptides across the selected HLA alleles. The test peptides identified as “binders” were characterized further in terms of affinity and dissociation experiments. The off-rate assay used evaluates the dissociation of previously bound peptide at defined time points (expressed as the t1/2 value). The affinity assay used measures the relative binding affinities for the MHC molecules determined by incubating candidate peptides identified in the initial peptide binding assay at increasing concentrations (expressed as quantity of peptide needed to achieve 50% binding or ED50 value).
# (§2) The binding of the test peptides (Table 8) to the HLA molecules (Table 9) was performed at a concentration of 1.11×10^−4M of peptide under optimal, standardized test conditions. A control peptide was run in parallel on the same plate and at the same concentration as the test peptides. […] The level of binding is expressed as a percent of positive control peptide binding for each allele.
# HLA A*0201 [2] = molecular target: T2, HLA A*0201 (Homo sapiens, UniProt P04439, D140Y/D185E/D98H/E176V/E277Q/G131W/G231S/I119V/I121R/I166T/I218V/L300P/L318F/N151K/N90K/P208A/P217A/Q86G/Q94H/R138H/R169H/T345S); assay: ITOPIA peptide binding assay; details: 1.11×10^−4M of peptide
# Method: as §1, §2
# HLA A*0301 [3] = molecular target: T3, HLA A*0301 (Homo sapiens, UniProt P04439); assay: ITOPIA peptide binding assay; details: 1.11×10^−4M of peptide
# T3 construct: purchased
# Method: as §1, §2
# HLA A*1101 [4] = molecular target: T4, HLA A*1101 (Homo sapiens, UniProt P04439, A114D/D185E/E176A/F33Y/L180Q/S129P/T187R); assay: ITOPIA peptide binding assay; details: 1.11×10^−4M of peptide
# T4 construct: purchased
# Method: as §1, §2
# HLA A*2402 [5] = molecular target: T5, HLA A*2402 (Homo sapiens, UniProt P04439, D101N/D140Y/D185E/E176V/E190D/F33S/G103R/G107R/I119L/I121M/I306V/K335N/L105A/L180Q/L300P/N151K/N90K/Q86E/Q94H/R106L/R138H/R89G/T104I/T345S/V100E/W191G/Y123F); assay: ITOPIA peptide binding assay; details: 1.11×10^−4M of peptide
# Method: as §1, §2
# HLA B*0702 [6] = molecular target: T6, HLA B*0702 (Homo sapiens, UniProt P01889); assay: ITOPIA peptide binding assay; details: 1.11×10^−4M of peptide
# T6 construct: purchased
# Method: as §1, §2
# HLA B*0801 [7] = molecular target: T7, HLA B*0801 (Homo sapiens, UniProt P01889, A93T/A95T/D138N/E176V/E187T/K202T/Q94N/R180D/S35A/V36M/Y33D/Y91F); assay: ITOPIA peptide binding assay; details: 1.11×10^−4M of peptide
# T7 construct: purchased
# Method: as §1, §2
# HLA B*1501 [8] = molecular target: T8, HLA B*1501 (Homo sapiens, UniProt P01889, A329T/A93T/A95T/C349S/D201E/D98Y/E187L/E204Q/E69M/E70A/K202T/N87E/Q94N/R155S/R180W/S121R/S35A/S48A/V306I/V36M/Y140S/Y91S); assay: ITOPIA peptide binding assay; details: 1.11×10^−4M of peptide
# T8 construct: purchased
# Method: as §1, §2
# HLA B*0702 [9] = molecular target: T6, HLA B*0702; assay: ITOPIA off-rate assay; type: binding; details: 37° C., one-phase exponential decay
# Method: as §1
# (§3) The peptides initially identified as binders were evaluated for stability based on their ability to remain bound to MHC molecules at 37° C. at time points 0, 0.5, 1, 1.5, 2, 4, 6 and 8 hours. […] The values obtained for each time point (in duplicate) are expressed (Table 11) as a percentage of the positive control. To calculate the t1/2 and goodness-of-fit, as measured by r^2, for each peptide, a one-phase exponential decay curve, with a plateau given equal to 0, was generated using […] PRISM software.
# HLA B*0801 [10] = molecular target: T7, HLA B*0801; assay: ITOPIA off-rate assay; type: binding; details: 37° C., one-phase exponential decay
# Method: as §1, §3
# HLA A*0101 [11] = molecular target: T1, HLA A*0101; assay: Multi-parametric analysis iScore; type: binding; set-up: scale not given here; details: index integrating t1/2 and ED50
# Method: (§4) Multi-parametric analysis was performed to integrate the half-life (t½) and ED50 parameters in an index (iScore). The iScore (Table 13) reflects the capability of a peptide to reconstitute with MHC molecules in a stable complex, defining its overall level of binding.
# HLA A*0201 [12] = molecular target: T2, HLA A*0201; assay: Multi-parametric analysis iScore; type: binding; set-up: scale not given here; details: index integrating t1/2 and ED50
# Method: as §4
# HLA A*0301 [13] = molecular target: T3, HLA A*0301; assay: Multi-parametric analysis iScore; type: binding; set-up: scale not given here; details: index integrating t1/2 and ED50
# Method: as §4
# HLA A*1101 [14] = molecular target: T4, HLA A*1101; assay: Multi-parametric analysis iScore; type: binding; set-up: scale not given here; details: index integrating t1/2 and ED50
# Method: as §4
# HLA A*2402 [15] = molecular target: T5, HLA A*2402; assay: Multi-parametric analysis iScore; type: binding; set-up: scale not given here; details: index integrating t1/2 and ED50
# Method: as §4
# HLA B*0702 [16] = molecular target: T6, HLA B*0702; assay: Multi-parametric analysis iScore; type: binding; set-up: scale not given here; details: index integrating t1/2 and ED50
# Method: as §4
# HLA B*0801 [17] = molecular target: T7, HLA B*0801; assay: Multi-parametric analysis iScore; type: binding; set-up: scale not given here; details: index integrating t1/2 and ED50
# Method: as §4
# HLA B*1501 [18] = molecular target: T8, HLA B*1501; assay: Multi-parametric analysis iScore; type: binding; set-up: scale not given here; details: index integrating t1/2 and ED50
# Method: as §4
# HLA A*2402 [19] = molecular target: T5, HLA A*2402; assay: ITOPIA off-rate assay; type: binding; details: 37° C., one-phase exponential decay
# Method: as §1, §3
# HLA A*0201 [20] = molecular target: T2, HLA A*0201; assay: ITOPIA off-rate assay; type: binding; details: 37° C., one-phase exponential decay
# Method: as §1, §3
# HLA B*1501 [21] = molecular target: T8, HLA B*1501; assay: ITOPIA off-rate assay; type: binding; details: 37° C., one-phase exponential decay
# Method: as §1, §3
Sequence,"level of binding, percent of positive control peptide binding (HLA A*0101 [1])","level of binding, percent of positive control peptide binding (HLA A*0201 [2])","level of binding, percent of positive control peptide binding (HLA A*0301 [3])","level of binding, percent of positive control peptide binding (HLA A*1101 [4])","level of binding, percent of positive control peptide binding (HLA A*2402 [5])","level of binding, percent of positive control peptide binding (HLA B*0702 [6])","level of binding, percent of positive control peptide binding (HLA B*0801 [7])","level of binding, percent of positive control peptide binding (HLA B*1501 [8])",B*0702 t1/2 (HLA B*0702 [9]) [h],B*0801 t1/2 (HLA B*0801 [10]) [h],iScore (HLA A*0101 [11]),iScore (HLA A*0201 [12]),iScore (HLA A*0301 [13]),iScore (HLA A*1101 [14]),iScore (HLA A*2402 [15]),iScore (HLA B*0702 [16]),iScore (HLA B*0801 [17]),iScore (HLA B*1501 [18]),A*2402 t1/2 (HLA A*2402 [19]) [h],further results
FPRIWLHGL [compound 152],0% of positive control,9% of positive control,0% of positive control,0% of positive control,41% of positive control,132% of positive control,39% of positive control,3% of positive control,1.1,1.8,0,0,0,0,0,0.421,0.189,0,–,–
RGRQKVVSI [compound 153],0% of positive control,6% of positive control,0% of positive control,6% of positive control,29% of positive control,88% of positive control,71% of positive control,7% of positive control,1.3,1.2,0,0,0,0,0.050,0.271,0.165,0,1.8,–
CSSNITGLL [compound 69],4% of positive control,37% of positive control,0% of positive control,1% of positive control,26% of positive control,5% of positive control,4% of positive control,30% of positive control,–,–,0,0.081,0,0,0.016,0,0,0.067,1.1,A*0201 t1/2 (HLA A*0201 [20]): 18 min; B*1501 t1/2 (HLA B*1501 [21]): 3.1 h
